Experimental data: ChEMBL document CHEMBL3525934 (Drug Metab Dispos, 2013)

Key:
Format in all cases: ADME
Details in all cases: 0.5 h
[1] = target: Cytochrome P450 2D6 (Homo sapiens, UniProt P10635); assay: Drug metabolism in supersomes expressing human recombinant CYP2D6 assessed as enzyme-mediated N-desmethylclozapine metabolite formation at 10 uM after 30 mins measured per nmol of P450 by HPLC analysis
[2] = target: T1, Cytochrome P450 2C18 (Homo sapiens, UniProt P33260); assay: Drug metabolism in supersomes expressing human recombinant CYP2C18 assessed as enzyme-mediated cyanide adduct formation at 100 uM after 30 mins measured per nmol of P450 by HPLC analysis in presence of KCN
T1 sequence (P33260 whole entry): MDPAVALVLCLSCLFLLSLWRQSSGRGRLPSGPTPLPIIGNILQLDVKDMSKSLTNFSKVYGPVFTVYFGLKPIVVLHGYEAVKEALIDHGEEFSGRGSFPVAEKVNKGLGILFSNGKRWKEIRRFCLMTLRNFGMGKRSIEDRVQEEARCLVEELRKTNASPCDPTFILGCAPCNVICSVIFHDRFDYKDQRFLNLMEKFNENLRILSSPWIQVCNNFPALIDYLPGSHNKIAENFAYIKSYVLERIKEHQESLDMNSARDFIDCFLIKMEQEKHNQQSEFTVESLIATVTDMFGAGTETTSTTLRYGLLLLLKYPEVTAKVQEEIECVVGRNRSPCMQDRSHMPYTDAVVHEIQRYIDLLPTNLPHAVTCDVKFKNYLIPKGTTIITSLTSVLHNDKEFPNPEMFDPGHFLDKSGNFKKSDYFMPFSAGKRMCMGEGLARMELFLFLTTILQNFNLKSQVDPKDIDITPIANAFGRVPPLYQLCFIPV

[3] = target: T2, Cytochrome P450 1A2 (Homo sapiens, UniProt P05177); assay: Drug metabolism in supersomes expressing human recombinant CYP1A2 assessed as enzyme-mediated cyanide adduct formation at 100 uM after 30 mins measured per nmol of P450 by HPLC analysis in presence of KCN
T2 sequence (P05177 whole entry): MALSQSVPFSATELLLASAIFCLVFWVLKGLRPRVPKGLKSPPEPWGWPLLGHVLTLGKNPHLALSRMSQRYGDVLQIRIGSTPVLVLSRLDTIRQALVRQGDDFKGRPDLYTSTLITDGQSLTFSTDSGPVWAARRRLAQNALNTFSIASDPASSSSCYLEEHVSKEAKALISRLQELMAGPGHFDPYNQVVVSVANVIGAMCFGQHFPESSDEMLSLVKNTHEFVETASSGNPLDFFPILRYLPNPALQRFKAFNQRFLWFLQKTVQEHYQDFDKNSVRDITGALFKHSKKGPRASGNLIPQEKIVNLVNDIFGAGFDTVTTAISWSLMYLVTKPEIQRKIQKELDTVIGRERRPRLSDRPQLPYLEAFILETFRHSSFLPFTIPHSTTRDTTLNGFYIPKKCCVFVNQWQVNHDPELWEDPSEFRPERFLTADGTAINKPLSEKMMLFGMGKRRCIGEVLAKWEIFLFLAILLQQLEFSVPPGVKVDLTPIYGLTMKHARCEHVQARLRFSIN

[4] = target: T3, Cytochrome P450 1A1 (Homo sapiens, UniProt P04798); assay: Drug metabolism in supersomes expressing human recombinant CYP1A1 assessed as enzyme-mediated N-desmethylclozapine metabolite formation at 10 uM after 30 mins measured per nmol of P450 by HPLC analysis
T3 sequence (P04798 whole entry): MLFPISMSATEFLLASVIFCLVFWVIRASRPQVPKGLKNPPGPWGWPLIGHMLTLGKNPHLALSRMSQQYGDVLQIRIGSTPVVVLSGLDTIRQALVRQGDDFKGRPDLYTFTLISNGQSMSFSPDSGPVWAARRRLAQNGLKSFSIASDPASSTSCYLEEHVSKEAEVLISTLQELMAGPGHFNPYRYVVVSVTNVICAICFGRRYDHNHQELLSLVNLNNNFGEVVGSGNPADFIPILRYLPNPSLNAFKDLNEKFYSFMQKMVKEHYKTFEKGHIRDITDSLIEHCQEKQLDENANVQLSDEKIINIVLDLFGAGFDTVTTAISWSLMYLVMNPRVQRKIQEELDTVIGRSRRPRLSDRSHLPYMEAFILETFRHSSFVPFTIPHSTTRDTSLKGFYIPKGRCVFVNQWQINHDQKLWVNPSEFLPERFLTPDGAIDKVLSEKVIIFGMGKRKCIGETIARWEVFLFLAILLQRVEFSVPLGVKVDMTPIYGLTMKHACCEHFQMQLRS

[5] = target: Cytochrome P450 2C9 (Homo sapiens, UniProt P11712); assay: Drug metabolism in supersomes expressing human recombinant CYP2C9 assessed as enzyme-mediated N-desmethylclozapine metabolite formation at 10 uM after 30 mins measured per nmol of P450 by HPLC analysis
[6] = target: T2, Cytochrome P450 1A2; assay: Drug metabolism in supersomes expressing human recombinant CYP1A2 assessed as enzyme-mediated clozapine-N-oxide metabolite formation at 10 uM after 30 mins measured per nmol of P450 by HPLC analysis
[7] = target: T4, Cytochrome P450 1B1 (Homo sapiens, UniProt Q16678); assay: Drug metabolism in supersomes expressing human recombinant CYP1B1 assessed as enzyme-mediated clozapine-N-oxide metabolite formation at 10 uM after 30 mins measured per nmol of P450 by HPLC analysis
T4 sequence (Q16678 whole entry): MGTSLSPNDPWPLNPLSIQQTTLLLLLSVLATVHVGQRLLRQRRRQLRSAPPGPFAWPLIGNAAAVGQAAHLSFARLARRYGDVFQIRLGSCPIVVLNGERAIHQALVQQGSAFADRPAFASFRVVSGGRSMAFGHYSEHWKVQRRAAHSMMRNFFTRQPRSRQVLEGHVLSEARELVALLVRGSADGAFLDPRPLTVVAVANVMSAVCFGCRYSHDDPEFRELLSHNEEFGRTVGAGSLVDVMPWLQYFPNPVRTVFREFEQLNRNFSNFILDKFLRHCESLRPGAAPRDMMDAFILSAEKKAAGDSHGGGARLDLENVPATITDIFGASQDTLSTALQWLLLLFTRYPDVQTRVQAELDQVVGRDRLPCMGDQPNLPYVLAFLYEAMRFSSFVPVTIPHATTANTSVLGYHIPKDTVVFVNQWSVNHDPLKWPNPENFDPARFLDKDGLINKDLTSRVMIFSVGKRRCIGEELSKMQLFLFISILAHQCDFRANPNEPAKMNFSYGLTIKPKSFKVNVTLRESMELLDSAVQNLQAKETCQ

[8] = target: Cytochrome P450 2C19 (Homo sapiens, UniProt P33261); assay: Drug metabolism in supersomes expressing human recombinant CYP2C19 assessed as enzyme-mediated clozapine-N-oxide metabolite formation at 10 uM after 30 mins measured per nmol of P450 by HPLC analysis
[9] = target: T4, Cytochrome P450 1B1; assay: Drug metabolism in supersomes expressing human recombinant CYP1B1 assessed as enzyme-mediated N-desmethylclozapine metabolite formation at 100 uM after 30 mins measured per nmol of P450 by HPLC analysis
[10] = target: T1, Cytochrome P450 2C18; assay: Drug metabolism in supersomes expressing human recombinant CYP2C18 assessed as enzyme-mediated N-desmethylclozapine metabolite formation at 100 uM after 30 mins measured per nmol of P450 by HPLC analysis

Chain of Cytochrome P450 2D6 (P10635 whole entry): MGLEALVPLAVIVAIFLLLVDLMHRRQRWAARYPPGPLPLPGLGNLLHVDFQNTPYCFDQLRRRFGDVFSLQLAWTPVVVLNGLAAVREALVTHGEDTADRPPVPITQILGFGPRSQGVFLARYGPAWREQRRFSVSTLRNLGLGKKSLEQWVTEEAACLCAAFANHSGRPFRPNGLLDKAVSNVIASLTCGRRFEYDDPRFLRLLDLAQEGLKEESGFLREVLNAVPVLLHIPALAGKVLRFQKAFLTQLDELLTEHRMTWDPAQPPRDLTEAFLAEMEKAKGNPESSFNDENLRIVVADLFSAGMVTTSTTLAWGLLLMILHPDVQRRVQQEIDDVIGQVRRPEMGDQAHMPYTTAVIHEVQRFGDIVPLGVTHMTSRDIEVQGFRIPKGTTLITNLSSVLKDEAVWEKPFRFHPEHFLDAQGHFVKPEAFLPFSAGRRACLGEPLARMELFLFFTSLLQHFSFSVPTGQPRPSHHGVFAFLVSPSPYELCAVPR
Chain of Cytochrome P450 2C9 (P11712 whole entry): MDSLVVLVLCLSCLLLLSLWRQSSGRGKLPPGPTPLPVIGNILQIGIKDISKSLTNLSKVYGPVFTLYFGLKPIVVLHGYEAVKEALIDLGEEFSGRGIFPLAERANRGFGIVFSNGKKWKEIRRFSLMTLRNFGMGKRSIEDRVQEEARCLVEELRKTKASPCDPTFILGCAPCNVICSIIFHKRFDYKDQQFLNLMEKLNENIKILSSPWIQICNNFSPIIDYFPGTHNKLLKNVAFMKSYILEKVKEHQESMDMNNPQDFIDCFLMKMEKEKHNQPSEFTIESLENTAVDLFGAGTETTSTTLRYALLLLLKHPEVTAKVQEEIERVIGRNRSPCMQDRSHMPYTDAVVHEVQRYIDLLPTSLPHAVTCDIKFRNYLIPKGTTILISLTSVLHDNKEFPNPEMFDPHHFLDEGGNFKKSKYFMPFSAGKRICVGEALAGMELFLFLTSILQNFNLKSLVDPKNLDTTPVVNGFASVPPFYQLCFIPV
Chain of Cytochrome P450 2C19 (P33261 whole entry): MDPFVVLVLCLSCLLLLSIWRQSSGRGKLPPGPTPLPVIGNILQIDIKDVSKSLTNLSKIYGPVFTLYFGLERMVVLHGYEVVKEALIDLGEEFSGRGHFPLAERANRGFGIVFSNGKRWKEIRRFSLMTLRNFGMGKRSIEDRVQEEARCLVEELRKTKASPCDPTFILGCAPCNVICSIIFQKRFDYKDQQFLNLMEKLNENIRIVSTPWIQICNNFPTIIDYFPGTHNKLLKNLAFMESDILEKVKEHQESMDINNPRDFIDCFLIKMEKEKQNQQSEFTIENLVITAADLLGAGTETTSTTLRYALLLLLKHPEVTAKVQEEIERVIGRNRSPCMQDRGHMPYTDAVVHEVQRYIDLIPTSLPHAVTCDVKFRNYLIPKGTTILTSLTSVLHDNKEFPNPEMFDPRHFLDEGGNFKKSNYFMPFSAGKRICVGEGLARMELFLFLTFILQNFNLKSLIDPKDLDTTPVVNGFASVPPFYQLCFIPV

Structure (SMILES): CN1CCN(C2=Nc3cc(Cl)ccc3Nc3ccccc32)CC1 [CLOZAPINE]
- Drug metabolism [1]: 8.43 nmol/min/nmol P450
- Drug metabolism [2]: 0.41 nmol/min
- Drug metabolism [3]: 0.2 nmol/min
- Drug metabolism [4]: 0.64 nmol/min
- Drug metabolism [5]: 0.33 nmol/min
- Drug metabolism [6]: 0.55 nmol/min/nmol P450
- Drug metabolism [7]: 0.84 nmol/min
- Drug metabolism [8]: 0.71 nmol/min/nmol P450
- Drug metabolism [9]: 0.94 nmol/min
- Drug metabolism [10]: 5.71 nmol/min/nmol P450
